According to ChEMBL document CHEMBL1201862, “PubChem BioAssay data set” (2004):
Active and inactive are the calls of the source.

Tests used:
[1] = biological target: Kallikrein-7 (Homo sapiens, UniProt P49862); experiment: Fluorescence Intensity-based biochemical primary high throughput dose response assay to identify activators of kallikrein-7 (K7) zymogen.
[2] = biological target: T1, COUP transcription factor 2 (Homo sapiens, UniProt P24468); experiment: Luminescence-based cell-based high throughput dose response assay to identify inhibitors of COUP-TFII (NR2F2).; assay type: functional;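 note: HEK293 cells transiently cotransfected with COUP-TFII expression vector and reporter; luciferase reporter luminescence driven by COUP-TFII from the pX2-168 reporter plasmid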
T1 sequence (P24468 whole entry): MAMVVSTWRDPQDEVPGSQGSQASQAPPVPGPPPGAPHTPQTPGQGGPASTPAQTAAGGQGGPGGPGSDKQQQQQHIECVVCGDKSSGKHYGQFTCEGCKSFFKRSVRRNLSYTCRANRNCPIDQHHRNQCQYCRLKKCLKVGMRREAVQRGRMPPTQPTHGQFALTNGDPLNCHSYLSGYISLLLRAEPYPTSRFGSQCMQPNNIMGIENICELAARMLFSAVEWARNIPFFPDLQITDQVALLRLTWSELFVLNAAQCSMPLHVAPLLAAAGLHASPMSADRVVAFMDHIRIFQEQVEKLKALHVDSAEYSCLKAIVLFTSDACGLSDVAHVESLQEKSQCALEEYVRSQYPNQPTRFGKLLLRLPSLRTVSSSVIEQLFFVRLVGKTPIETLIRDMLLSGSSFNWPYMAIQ

[3] = A549 cell cytotoxicity, dose response, cytotoxicity control, plate reader, cherry-pick, antagonist series (AID 743412); assay type: functional, cell-based
[4] = blockers of bursicon-stimulated LGR2 cAMP reporter – cell-based, HEK293, CRE-luciferase reporter, cherry pick, set 2, dose response (AID 743343); assay type: functional;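 note: transfected cells were stimulated with diluted bursicon conditioned medium after compound addition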
[5] = toxicity toward HepG2 liver cells – cell-based, plate reader, cherry-pick, antagonist series, cytotoxicity control, dose response (AID 743416); assay type: functional
[6] = blockade of melanocortin 4 receptor signaling – cell-based, plate reader, cherry pick, counter-screen for LGR2 antagonist project, dose response (AID 743444); assay type: functional;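 note: transfected HEK 293 cells stimulated with alpha-MSH peptide; potency of inhibitors of the alpha-MSH evoked signal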
[7] = biological target: Paired box protein Pax-8 (Homo sapiens, UniProt Q06710); experiment: PAX8 transcriptional activity inhibition in RMG-I – RMG-I cells, luciferase, cherry-pick, dose response (AID 687027); assay type: functional, cell-based;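 note: luciferase reporter driven by Pax8 target thyroperoxidase promoter measured by SteadyGlo luminescence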
[8] = viability loss in HEK293 cells – cell-based, plate reader, cherry-picked samples, cytotoxicity control, dose response (AID 743446); assay type: functional
[9] = Fluorescence-based cell-based high throughput dose response assay for inhibitors of the interaction of nucleotide-binding oligomerization domain containing 2 (NOD2) and the receptor-interacting serine-threonine kinase 2 (RIPK2).; assay type: functional; conditions: Homo sapiens
[10] = viability loss in human Jurkat cells – cell-based, luminescence, cytotoxicity control for P. falciparum gametocyte viability project, dose response (AID 1117277); assay type: functional;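 note: potency reflects loss of cellular ATP meaning fewer viable cells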
[11] = viability inhibitors of stage V gametocytes – luminescence, dose response (AID 1117278); assay type: functional, cell-based;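 note: gametocytes exposed to compound for 24 hours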
[12] = OVCAR8 cell viability loss – plate reader, dry powder samples, PAX8 project, dose response (AID 743197); assay type: functional, cell-based; conditions: OVCAR-8
[13] = A2780 cell killing – plate reader, dry powder samples, cytotoxicity control, dose response (AID 743046); assay type: functional, cell-based
[14] = OVCAR-3 cell viability loss – plate reader, dry powder samples, PAX8 inhibitor project, dose response (AID 743044); assay type: functional, cell-based
[15] = non-specific 3'UTR reporter inhibition in Clone20-Shn3RL – cell-based, Renilla luciferase, cherry-picked, counter-screen for Shn3 inhibitor project, dose response (AID 624133); assay type: functional
[16] = loss of viability in HepG2 cells – cell-based, CellTiter-Glo, cherry-picked, cytotoxicity control for Shn3 inhibitor project, dose response (AID 624134); assay type: functional
[17] = reduction of Shn3 3'UTR-driven luciferase in osteoblasts – cell-based, Clone20 osteoblasts, firefly luciferase, cherry-picked, dose response (AID 624132); assay type: functional;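 note: firefly luciferase luminescence from reporter carrying the Shn3 3'UTR in osteoblasts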
[18] = biological target: T2, Protein RecA (Mycobacterium tuberculosis, UniProt P9WHJ3); experiment: Fluorescence Cell-Free Homogeneous Dose Retest to Identify Inhibitors of RecA-Intein Splicing Activity. [Related pubchem assays (depositor defined):AID2097, AID2223, AID489010, AID492950]; assay type: functional
T2 sequence (P9WHJ3 whole entry): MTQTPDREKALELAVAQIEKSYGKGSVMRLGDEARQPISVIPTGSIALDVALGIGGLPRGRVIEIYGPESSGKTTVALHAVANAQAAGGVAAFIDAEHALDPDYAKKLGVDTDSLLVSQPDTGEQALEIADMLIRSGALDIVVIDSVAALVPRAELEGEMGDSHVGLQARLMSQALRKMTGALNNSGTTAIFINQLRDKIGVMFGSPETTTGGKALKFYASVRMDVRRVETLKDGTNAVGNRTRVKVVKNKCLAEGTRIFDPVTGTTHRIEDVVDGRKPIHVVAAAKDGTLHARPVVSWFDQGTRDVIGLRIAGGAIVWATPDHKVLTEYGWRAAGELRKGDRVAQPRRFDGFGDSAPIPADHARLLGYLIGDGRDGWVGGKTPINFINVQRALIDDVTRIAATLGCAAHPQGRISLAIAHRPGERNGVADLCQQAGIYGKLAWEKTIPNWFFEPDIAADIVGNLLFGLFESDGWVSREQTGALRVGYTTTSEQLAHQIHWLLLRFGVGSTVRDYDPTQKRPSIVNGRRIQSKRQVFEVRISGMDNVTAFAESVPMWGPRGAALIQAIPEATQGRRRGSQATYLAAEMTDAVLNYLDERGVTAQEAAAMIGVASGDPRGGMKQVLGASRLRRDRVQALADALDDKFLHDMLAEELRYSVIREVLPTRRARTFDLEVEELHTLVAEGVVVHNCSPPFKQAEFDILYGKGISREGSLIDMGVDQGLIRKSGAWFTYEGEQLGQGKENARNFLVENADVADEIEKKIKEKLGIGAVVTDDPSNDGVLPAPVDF

[19] = test system: Vero; experiment: mammalian cell viability reduction – secondary assay, cytotoxicity control for West Nile virus antiviral project, dose response (AID 1650); assay type: functional; conditions: Chlorocebus sabaeus
[20] = test system: Vero; experiment: cells; assay type: functional; conditions: Chlorocebus sabaeus
[21] = biological target: T3, Replicative DNA helicase DnaB (Mycobacterium tuberculosis, UniProt P9WMR3); experiment: DnaB intein splicing inhibitors, dose response, biochemical, cell-free fluorescence (AID 449749); assay type: functional
T3 sequence (P9WMR3 whole entry): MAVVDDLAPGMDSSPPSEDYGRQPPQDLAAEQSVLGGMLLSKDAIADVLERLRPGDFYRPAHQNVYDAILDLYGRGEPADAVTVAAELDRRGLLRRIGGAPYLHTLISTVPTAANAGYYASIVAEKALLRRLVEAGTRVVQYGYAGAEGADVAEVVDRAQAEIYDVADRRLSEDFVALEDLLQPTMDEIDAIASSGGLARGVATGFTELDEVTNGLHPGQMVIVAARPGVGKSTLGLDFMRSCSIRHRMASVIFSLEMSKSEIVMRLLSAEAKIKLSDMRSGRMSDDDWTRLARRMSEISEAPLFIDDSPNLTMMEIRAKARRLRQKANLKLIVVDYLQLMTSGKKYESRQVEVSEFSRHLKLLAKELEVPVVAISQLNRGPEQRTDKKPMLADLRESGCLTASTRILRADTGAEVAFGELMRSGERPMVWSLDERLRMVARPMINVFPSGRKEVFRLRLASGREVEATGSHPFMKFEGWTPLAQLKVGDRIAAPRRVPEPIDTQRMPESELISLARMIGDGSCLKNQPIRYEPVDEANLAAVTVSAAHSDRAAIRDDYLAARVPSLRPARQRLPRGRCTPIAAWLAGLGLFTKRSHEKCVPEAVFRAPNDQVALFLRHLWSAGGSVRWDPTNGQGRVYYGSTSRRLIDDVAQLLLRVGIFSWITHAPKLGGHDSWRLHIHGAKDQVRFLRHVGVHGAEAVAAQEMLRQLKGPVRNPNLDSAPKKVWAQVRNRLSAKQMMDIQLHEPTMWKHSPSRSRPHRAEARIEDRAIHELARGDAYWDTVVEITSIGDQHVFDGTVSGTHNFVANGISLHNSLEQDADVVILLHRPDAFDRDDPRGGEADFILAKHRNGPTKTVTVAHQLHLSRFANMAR

[22] = biological target: T4, Protein skinhead-1 (Caenorhabditis elegans, UniProt P34707); assay type: functional
T4 sequence (P34707 whole entry): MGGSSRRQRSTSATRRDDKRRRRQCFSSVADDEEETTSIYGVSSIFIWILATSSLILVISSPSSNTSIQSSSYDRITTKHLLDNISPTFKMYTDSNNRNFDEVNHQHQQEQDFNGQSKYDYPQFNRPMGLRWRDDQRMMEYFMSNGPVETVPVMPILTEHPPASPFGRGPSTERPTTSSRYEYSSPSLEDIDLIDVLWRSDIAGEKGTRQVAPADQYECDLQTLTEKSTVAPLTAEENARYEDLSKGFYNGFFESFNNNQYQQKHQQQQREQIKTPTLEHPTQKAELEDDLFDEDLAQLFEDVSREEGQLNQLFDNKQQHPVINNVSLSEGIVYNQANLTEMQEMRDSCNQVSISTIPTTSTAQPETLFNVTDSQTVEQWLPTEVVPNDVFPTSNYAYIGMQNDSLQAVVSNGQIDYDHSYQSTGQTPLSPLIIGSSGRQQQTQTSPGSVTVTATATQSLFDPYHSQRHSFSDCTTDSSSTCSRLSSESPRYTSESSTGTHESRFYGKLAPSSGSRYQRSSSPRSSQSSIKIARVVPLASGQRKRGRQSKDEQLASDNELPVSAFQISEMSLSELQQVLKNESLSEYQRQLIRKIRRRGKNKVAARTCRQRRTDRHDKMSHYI

[23] = Luminescence Cell-Based Dose Response HTS to Identify Inhibitors of 5'UTR Stem-Loop Driven Prion Protein mRNA Translation in H4 Neuroglioblastoma Cells. [Related pubchem assays: 1827 (Project Summary), 1813 (Primary HTS)]; assay type: functional
[24] = luciferase reporter signal suppression in cells – H4 neuroglioma cells, luminescence, dose response (AID 1990); assay type: functional, cell-based
[25] = alpha-synuclein stem-loop luciferase translation blockers – H4 neuroglioma cells, luminescence, confirmation (AID 1988); assay type: functional, cell-based
[26] = CellTiter-Glo luminescence survival assay, SW480 colon tumor line, concentration-response curve, half-maximal inhibitory concentration (AID 1117338); assay type: functional
[27] = cytotoxicity toward HT-29 cells – cell-based, CellTiter-Glo luminescence, IC50, dose response (AID 1117330); assay type: functional
[28] = cytotoxicity toward Colo320 cells – cell-based, CellTiter-Glo luminescence, IC50, dose response (AID 1117334); assay type: functional; conditions: COLO 320
[29] = SNU-C1 cell viability reduction, dose response, CellTiter-Glo luminescence (AID 1117323); assay type: functional, cell-based
[30] = Reduced DLD-1 viability, concentration-response, CellTiter-Glo luminescence (AID 1117352); assay type: functional
[31] = RKO cell viability reduction, dose response, CellTiter-Glo luminescence (AID 1117322); assay type: functional
[32] = cytotoxicity toward HCT116 cells – cell-based, CellTiter-Glo luminescence, IC50, dose response (AID 1117332); assay type: functional; conditions: HCT-116

Paired box protein Pax-8, sequence (Q06710 whole entry): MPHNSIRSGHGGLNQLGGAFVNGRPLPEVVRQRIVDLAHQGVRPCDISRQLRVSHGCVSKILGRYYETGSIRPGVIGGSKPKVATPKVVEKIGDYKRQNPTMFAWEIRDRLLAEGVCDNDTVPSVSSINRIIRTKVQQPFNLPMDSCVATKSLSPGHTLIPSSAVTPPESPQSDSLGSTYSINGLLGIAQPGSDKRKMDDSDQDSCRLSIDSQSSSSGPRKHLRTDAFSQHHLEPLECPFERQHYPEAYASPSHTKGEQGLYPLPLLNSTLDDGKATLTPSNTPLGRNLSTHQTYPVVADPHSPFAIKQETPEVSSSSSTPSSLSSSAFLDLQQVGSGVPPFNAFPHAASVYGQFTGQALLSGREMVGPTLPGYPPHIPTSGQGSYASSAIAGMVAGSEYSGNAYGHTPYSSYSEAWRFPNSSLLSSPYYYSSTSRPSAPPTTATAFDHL
Kallikrein-7, sequence (P49862 whole entry): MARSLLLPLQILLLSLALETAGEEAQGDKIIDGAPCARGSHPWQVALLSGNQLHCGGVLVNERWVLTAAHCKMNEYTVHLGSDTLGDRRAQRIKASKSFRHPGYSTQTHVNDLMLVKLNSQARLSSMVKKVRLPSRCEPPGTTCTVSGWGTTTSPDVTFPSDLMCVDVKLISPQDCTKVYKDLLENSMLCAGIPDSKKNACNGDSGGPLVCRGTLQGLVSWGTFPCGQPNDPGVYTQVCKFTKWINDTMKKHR

Clc1ccc(-c2cnc3cccnn23)cc1
EC50 [1]: > 69.5 µM (inactive)

Cn1c2ccccc2c(=O)c2cc(C#CC3(O)CCCCC3)ccc21
IC50 [2]: 12 µM (inactive)

O=C1NC2C(O)C(O)C(O)C(O)C2c2cc3c(c(O)c21)OCO3 (stereo not drawn)
AC50 [3]: 0.358 µM (active) | AC50 [4]: 0.362 µM (active) | AC50 [5]: 0.428 µM (active) | AC50 [6]: 0.372 µM (active) | AC50 [7]: < 0.26 µM (active) | AC50 [8]: 0.321 µM (active) | IC50 [9]: 49.8 µM (inactive)

CS(=O)(=O)Cc1cc(N2CCCC2)nc(-c2ccccc2)n1
IC50 [10]: > 83.3 µM (inactive) | IC50 [11]: > 109 µM (inactive)

C[C@H]1CCCCO[C@@H](CN(C)Cc2ccc(C(F)(F)F)cc2)[C@@H](C)CN([C@@H](C)CO)C(=O)c2cc(NC(=O)Cc3ccccc3)ccc2O1
AC50 [12]: 30.8 µM (active) | AC50 [7]: 7.94 µM (active) | AC50 [13]: 0.963 µM (active) | AC50 [14]: 11.4 µM (active)

CCN(CC)CCNC(=O)CSc1c2c(nc3cc(Cl)ccc13)CCCC2
AC50 [15]: 25.5 µM (active) | AC50 [16]: > 70 µM (inactive) | AC50 [17]: 14.9 µM (active) | EC50 [18]: 11.8 µM (active) | CC50 [19]: 18.8 µM (active) | CC50 [20]: > 25 µM (active) | AC50 [21]: 241 µM (active)

Cc1cccc(-c2cc3nc(C)cc(NCCCN(C)C)n3n2)c1
CC50 [19]: 64.2 µM (active)

Cc1ccc(C(=O)N2CCN(S(=O)(=O)c3ccccc3)CC2)cc1
IC50 [10]: > 83.3 µM (inactive) | IC50 [11]: > 109 µM (inactive)

CCCOc1ccc2cc(-c3ccccn3)c(=O)oc2c1
AC50 [4]: 1.48 µM (active) | IC50 [22]: > 100 µM (inactive) | EC50 [23]: 9.71 µM (active) | AC50 [5]: > 52 µM (inactive) | AC50 [6]: 2 µM (active) | AC50 [8]: 33.6 µM (active) | EC50 [24]: 2.91 µM (active) | EC50 [25]: 2.83 µM (active)

C[C@@H]1CN([C@H](C)CO)C(=O)Cc2cc(NS(=O)(=O)c3ccc(Cl)cc3)ccc2O[C@@H]1CN(C)Cc1ccc(C(F)(F)F)cc1
AC50 [3]: 7.62 µM (active) | AC50 [4]: 22.7 µM (active) | AC50 [5]: 10.4 µM (active) | AC50 [6]: 20.2 µM (active) | AC50 [8]: 15.8 µM (active)

O=C(COC(=O)CSc1ccc2ccccc2c1)NCc1ccc2c(c1)OCO2
IC50 [10]: > 83.3 µM (inactive) | IC50 [11]: > 109 µM (inactive)

COc1ccc2nc(Nc3nc(O)cc(CSc4nnnn4-c4ccccc4)n3)nc(C)c2c1
CC50 [19]: > 100 µM (active)

CN(CCOc1ccc(CC2SC(=O)NC2=O)cc1)c1ccccn1 (stereo not drawn) [ROSIGLITAZONE]
IC50 [26]: > 20 µM (inactive) | IC50 [27]: > 20 µM (inactive) | IC50 [28]: > 20 µM (inactive) | IC50 [29]: 8.69 µM (inactive) | IC50 [30]: > 20 µM (inactive) | IC50 [31]: > 20 µM (inactive) | IC50 [32]: > 20 µM (inactive)
